Test: Example 5: renal function-related safety, changes in eGFR in the phase 3 trials of Examples 1 to 3
Type: in vivo, human
Design: eGFR, change from baseline: unit not given here
Settings: for eGFR: in mL/min/1.73m2 (unit assumed)
Source text: In phase 3 clinical trials of Examples 1 to 3, the changes in eGFR as an indicator of renal function-related safety were confirmed.

[1] = Week 6, Example 2 (combination therapy with metformin)
[2] = Week 6, Example 3 (combination therapy with metformin/gemigliptin)
[3] = Week 12, Example 2 (combination therapy with metformin)
[4] = Week 12, Example 3 (combination therapy with metformin/gemigliptin)
[5] = Week 18, Example 2 (combination therapy with metformin)
[6] = Week 18, Example 3 (combination therapy with metformin/gemigliptin)
[7] = Week 24, Example 2 (combination therapy with metformin)
[8] = Week 24, Example 3 (combination therapy with metformin/gemigliptin)
[9] = week 6, Example 2 (combination therapy with metformin)
[10] = week 6, Example 3 (combination therapy with metformin/gemigliptin)
[11] = week 12, Example 2 (combination therapy with metformin)
[12] = week 12, Example 3 (combination therapy with metformin/gemigliptin)
[13] = week 18, Example 2 (combination therapy with metformin)
[14] = week 18, Example 3 (combination therapy with metformin/gemigliptin)
[15] = week 24, Example 2 (combination therapy with metformin)
[16] = week 24, Example 3 (combination therapy with metformin/gemigliptin)

SMILES | eGFR [1] | eGFR [2] | eGFR [3] | eGFR [4] | eGFR [5] | eGFR [6] | eGFR [7] | eGFR [8] | eGFR, change from baseline [9] | eGFR, change from baseline [10] | eGFR, change from baseline [11] | eGFR, change from baseline [12] | eGFR, change from baseline [13] | eGFR, change from baseline [14] | eGFR, change from baseline [15] | eGFR, change from baseline [16] | further results
CCOc1ccc(Cc2cc([C@@H]3O[C@H](CO)[C@@H](O)[C@H](O)[C@H]3O)ccc2Cl)cc1 [Dapagliflozin, reference compound] | 92.123 | 90.5384 | 92.274 | 89.8198 | 94.828 | 90.9546 | 93.739 | 91.6344 | −1.908 | −1.1439 | −1.559 | −1.7177 | 0.897 | 0.0571 | −0.193 | 0.5790 | –
OC[C@H]1O[C@@H](c2cc(Cc3ccc(C4CC4)cc3)c(Cl)c3c2CCO3)[C@H](O)[C@@H](O)[C@@H]1O [Enavogliflozin, (2S,3R,4R,5S,6R)-2-(7-chloro-6 (4-cyclopropylbenzyl)-2,3-dihydrobenzofuran-4-yl)-6-(hydroxymethyl)tetrahydro-2H-pyran-3,4,5-triol] | 88.574 | 89.3847 | 90.566 | 92.0995 | 88.185 | 89.9269 | 88.056 | 91.9246 | 0.425 | 1.9291 | 2.488 | 0.9308 | 0.105 | −1.3048 | −0.024 | 0.7726 | eGFR (Week 6, Example 1 (monotherapy)): 88.464; eGFR (Week 12, Example 1 (monotherapy)): 90.142; eGFR (Week 18, Example 1 (monotherapy)): 91.088; eGFR (Week 24, Example 1 (monotherapy)): 91.387; Change in eGFR (renal function-related safety) (phase 3 trials of Examples 1 to 3): no significant change in eGFR; eGFR, change from baseline (week 6, Example 1 (monotherapy)): −0.845; eGFR, change from baseline (week 12, Example 1 (monotherapy)): 1.208; eGFR, change from baseline (week 18, Example 1 (monotherapy)): 2.072; eGFR, change from baseline (week 24, Example 1 (monotherapy)): 2.371
